Structures can show the parent of a compound that is named as a salt.
How the values were obtained:
human thrombocytes = assay: Fibrinogen binding to human thrombocytes (125I fibrinogen, gel-filtered platelets); conditions: ADP, 20 minutes at ambient temperature, read-out: Fibrinogen-binding test IC50
Description: 1. Fibrinogen binding to human thrombocytes The blood obtained by puncturing an antecubital vein is anticoagulated with trisodium citrate (final concentration: 13 mM) and centrifuged for 10 minutes at 170×g. The supernatant platelet-rich plasma is poured onto a Sepharose 2B column (Pharmacia) and eluted with a solution of 90 mM common salt, 14 mM trisodium citrate, 5 mM glucose and 50 mM Tris(hydroxymethyl)aminomethane, adjusted to pH 7.4. The gel-filtered platelets (GFP) appearing before the plasma proteins are used for the binding experiments. 50 μl of a 60 mM calcium chloride solution, 50 μl of a 0.6 mM adenosine diphosphate solution, 100 μl of substance solution or solvent and 50 μl of fibrinogen solution (containing 3 μg of ^125 I fibrinogen) are added to 750 μl of GFP and incubated for 20 minutes at ambient temperature. The non-specific binding is determined in the presence of 3 mg/ml of cold fibrinogen. 900 μof the incubated material are carefully pipetted onto 250 μof silicon oil (AP 38: AR 20, 1:2 v/v, Wacker Chemie) in Eppendorf tubes and centrifuged for 2 minutes at 10,000×g. The aqueous supernatant and part of the oil are drawn off, the tips of the tubes are cut off together with the platelet pellet and the quantity of bound fibrinogen is determined in a gamma counter. The concentration of substance which brings about a 50% inhibition in fibrinogen binding is determined from a series of concentrations and is given as the IC50 value.

[1] = tested on: collagen-induced platelet aggregation in platelet-rich plasma; assay: Antithrombotic activity: inhibition of collagen-induced thrombocyte (platelet) aggregation, Born and Cross method; assay type: cell-based, healthy volunteers (human); conditions: Homo sapiens, 10 minutes preincubation at 37° C.
Description: 2. Antithrombotic activity Method The thrombocyte aggregation is measured using the Born and Cross method (J. Physiol. 170: 397 (1964)) in platelet-rich plasma taken from healthy volunteers. To inhibit coagulation the blood is mixed with 3.14% sodium citrate in a ratio by volume of 1:10. Collagen-induced aggregation The pattern of the decrease in optical density of the platelet suspension is photometrically measured and recorded after the addition of the aggregation-triggering substance. The rate of aggregation is concluded from the angle of inclination of the density curve. The point on the curve where there is maximum light transmittance is used to calculate the optical density. The amount of collagen used is as small as possible but sufficient to produce an irreversible reaction curve. Standard commercial collagen produced by Hormonchemie of Munich is used. Before the addition of the collagen the plasma is incubated for 10 minutes with the substance at 37° C. From the measurements obtained an EC50 is determined graphically, indicating a 50% change in the optical density in terms of the inhibition of aggregation.

[2] = Tolerance after intravenous administration to mice; assay type: in vivo; conditions: 30 mg/kg intravenous, three mice each

| Compound | IC50 (human thrombocytes) [nM] | EC50 [1] [nM] | deaths after intravenous administration [2] |
| --- | --- | --- | --- |
| N=C(N)c1ccc(-c2ccc(-n3cnc(CC(O)C(=O)O)c3)nn2)cc1 (stereo not drawn) [1(1), 1-[-6-(4-amidinophenyl)-3-pyridazinyl]-4-(2-carboxy-2-hydroxy-ethyl)-imidazole] | 38 | 90 |  |
| Cl.N=C(N)c1ccc(-c2ccc(-n3cnc(CC(N)C(=O)O)c3)nn2)cc1 (stereo not drawn) [1(2), 1-[6-(4-amidino-phenyl)-3-pyridazinyl]-4-(2-amino-2-carboxy-ethyl)-imidazole-hydrochloride] | 18 | 90 | no animals died |
| N=C(N)c1ccc(-c2nnn(-c3ccc(CCC(=O)O)cc3)n2)cc1 [1(3), 5-(4-amidino-phenyl)-2-[4-(2-carboxy-ethyl)-phenyl]-tetrazole] | 220 | 11000 |  |
| N=C(N)c1ccc(-c2ccc(-c3nnn(CCC(=O)O)n3)cc2)cc1 [1(4), 5-(4-amidino-4'-biphenylyl)-2-(2-carboxy-ethyl)-tetrazole] | 44 | 290 |  |
| Cn1cc(-c2ccc(C(=N)N)cc2)nc1-c1ccc(CCC(=O)O)cc1 [1(6), 4-(4-amidino-phenyl)-2-[4-(2-carboxy-ethyl)-phenyl]-1-methyl-imidazole] | 25 | 90 |  |
| N=C(N)c1ccc(-c2c[nH]c(-c3ccc(CCC(=O)O)cc3)n2)cc1 [1(7), 4-(4-amidino-phenyl)-2-[4-(2-carboxy-ethyl)-phenyl]-imidazole] | 210 | 580 |  |
| N=C(N)c1ccc(-c2n[nH]c(-c3ccc(CCC(=O)O)cc3)n2)cc1 [1(8), 3-(4-amidino-phenyl)-5-[4-(2-carboxy-ethyl)-phenyl]-1,2,4-triazole] | 460 | 4100 |  |
| N=C(N)c1ccc(-c2nnc(-c3ccc(CCC(=O)O)cc3)o2)cc1 [1(9), 2-(4-amidino-phenyl)-5-[4-(2-carboxy-ethyl)-phenyl]-1,3,4-oxadiazole] | 4200 | 8500 |  |
| N=C(N)c1ccc(-c2nnc(-c3ccc(CCC(=O)O)cc3)s2)cc1 [1(10), 2-(4-amidino-phenyl)-5-[4-(2-carboxy-ethyl)-phenyl]-1,3,4-thiadiazole] | 2000 | 9500 |  |
| N=C(N)c1ccc(-c2ccc(-c3nnc(CCC(=O)O)s3)cc2)cc1 [1(20), 2-(4-amidino-4'-biphenylyl)-5-(2-carboxy-ethyl)-1,3,4-thiadiazole] | 65 | 290 |  |
| N=C(N)c1ccc(-c2ccc(-n3cnc(CC(C(=O)O)N(Cc4ccccc4)Cc4ccccc4)c3)nn2)cc1 (stereo not drawn) [1(35), 1-[6-(4-amidino-phenyl)-3-pyridazinyl]-4-(2-carboxy-2-dibenzylamino-ethyl)-imidazole] | 2400 | 6900 |  |
| N=C(N)c1ccc(-c2ccc(-n3cc(CCC(=O)O)c4ccccc43)nn2)cc1 [1(37), 1-[6-(4-amidino-phenyl)-3-pyridazinyl]-3-(2-carboxy-ethyl)-indole] | 150 | 2400 |  |
| N=C(N)c1ccc(-c2ccc(-c3n[nH]c(SCC(=O)O)n3)cc2)cc1 [1(39), 3-(4-amidino-4'-biphenylyl)-5-carboxymethylthio-1,2,4-triazole] | 39 | 3700 |  |
| COC(=O)c1cc(CCC(=O)O)oc1-c1ccc(-c2ccc(C(=N)N)cc2)cc1 [1(127), 2-(4-amidino-4'-biphenyl)-5-(2-carboxy-ethyl)-3-methoxycarbonyl-furan] | 2500 | 14000 |  |
| N=C(N)c1ccc(-c2ccc(-c3oc(CCC(=O)O)cc3C(=O)O)cc2)cc1 [1(128), 2-(4-amidino-4'-biphenyl)-3-carboxy-5-(2-carboxy-ethyl)-furan] | 3500 | 9000 |  |
| NCc1ccc(-c2ccc(-n3cnc(CC(N)C(=O)O)c3)nn2)cc1 (stereo not drawn) [1(134), 4-(2-amino-2-carboxy-ethyl)-1-[6-(4-aminomethyl-phenyl)-3-pyridazinyl]-imidazole-dihydrochloride] | 460 | 510 |  |
| COC(=O)C(O)Cc1cn(-c2ccc(-c3ccc(C(=N)N)cc3)nn2)cn1 (stereo not drawn) [2(1), 1-[6-(4-amidino-phenyl)-3-pyridazinyl]-4-(2-hydroxy-2-methoxycarbonyl-ethyl)-imidazole] |  | 180 |  |

| Compound | IC50 (human thrombocytes) [nM] | EC50 [1] [nM] | deaths after intravenous administration [2] |
| --- | --- | --- | --- |
| COC(=O)C(N)Cc1cn(-c2ccc(-c3ccc(C(=N)N)cc3)nn2)cn1 (stereo not drawn) [2(2), 1-[6-(4-amidino-phenyl)-3-pyridazinyl]-4-(2-amino-2-methoxycarbonyl-ethyl)-imidazole-tris-trifluoroacetate] | 340 | 350 |  |
| COC(=O)CCc1ccc(-n2nnc(-c3ccc(C(=N)N)cc3)n2)cc1 [2(3), 5-(4-amidino-phenyl)-2-[4-(2-methoxycarbonyl-ethyl)-phenyl]-tetrazole-hydrochloride] | 140 | 1600 |  |
| COC(=O)CCn1nnc(-c2ccc(-c3ccc(C(=N)N)cc3)cc2)n1 [2(4), 5-(4-amidino-4'-biphenylyl)-2-(2-methoxycarbonyl-ethyl)-tetrazole-hydrochloride] | 490 | 370 |  |
| COC(=O)CCc1ccc(-c2nc(-c3ccc(C(=N)N)cc3)cs2)cc1 [2(5), 4-(4-amidino-phenyl)-2-[4-(2-methoxycarbonyl-ethyl)-phenyl]-thiazole-hydrochloride] | 3100 | 7500 |  |
| COC(=O)CCc1ccc(-c2nc(-c3ccc(C(=N)N)cc3)cn2C)cc1 [2(6), 4-(4-amidino-phenyl)-2-[4-(2-methoxycarbonyl-ethyl)-phenyl]-1-methyl-imidazole-hydrochloride] | 4300 | 210 |  |
| COC(=O)CCc1ccc(-c2nc(-c3ccc(C(=N)N)cc3)c[nH]2)cc1 [2(7), 4-(4-amidino-phenyl)-2-[4-(2-methoxycarbonyl-ethyl)-phenyl]-imidazole-hydrochloride] | 17000 | 800 |  |
| COC(=O)CCc1ccc(-c2nc(-c3ccc(C(=N)N)cc3)n[nH]2)cc1 [2(8), 3-(4-amidino-phenyl)-5-[4-(2-methoxycarbonyl-ethyl)-phenyl]-1,2,4-triazole] | 44000 | 6400 |  |
| COC(=O)CCc1ccc(-c2nnc(-c3ccc(C(=N)N)cc3)s2)cc1 [2(10), 2-(4-amidino-phenyl)-5-[4-(2-methoxycarbonyl-ethyl)-phenyl]-1,3,4-thiadiazole] |  | 220 |  |
| COC(=O)CCc1nnc(-c2ccc(-c3ccc(C(=N)N)cc3)cc2)s1 [2(20), 2-(4-amidino-4'-biphenylyl)-5-(2-methoxycarbonyl-ethyl)-1,3,4-thiadiazole] | 4900 | 280 |  |
| COC(=O)CCc1cn(-c2ccc(-c3ccc(C(=N)N)cc3)nn2)c2ccccc12 [2(37), 1-[6-(4-amidino-phenyl)-3-pyridazinyl]-3-(2-methoxycarbonyl-ethyl)-indole] | 6200 | 6100 |  |
| COC(=O)CSc1nc(-c2ccc(-c3ccc(C(=N)N)cc3)cc2)n[nH]1 [2(39), 3-(4-amidino-4'-biphenylyl)-5-methoxycarbonyl-methylthio-1,2,4-triazole] |  | 5400 |  |
| COC(=O)CCc1cc(C(=O)OC)c(-c2ccc(-c3ccc(C(=N)N)cc3)cc2)o1 [2(126), 2-(4-amidino-4'-biphenylyl)-3-methoxycarbonyl-5-(2-methoxycarbonyl-ethyl)-furan-hydrochloride] | 1400 | 22000 |  |
| COC(=O)CCc1ccc(-c2nc(-c3ccc(C(=N)NC(=O)OC)cc3)cn2C)cc1 [4(1), 4-(4-methoxycarbonylamidino-phenyl)-2-[4-(2-methoxycarbonyl-ethyl)-phenyl]-1-methyl-imidazole] | 1500 |  |  |
| COC(=O)CCc1ccc(-c2nc(-c3ccc(C(=N)NC(=O)OC)cc3)c[nH]2)cc1 [4(2), 4-(4-methoxycarbonylamidino-phenyl)-2-[4-(2-methoxycarbonyl-ethyl)-phenyl]-imidazole] | 1800 |  |  |
| N=C(N)c1ccc(-c2ccc(-n3cnc(CCC(=O)O)c3)nn2)cc1 [Example 1] | 73 | 130 | no animals died |
| COC(=O)CCc1cn(-c2ccc(-c3ccc(C(=N)N)cc3)nn2)cn1 [Example 2, 1-[6-(4-Amidino-phenyl)-3-pyridazinyl]-4-(2-methoxy-carbonyl-ethyl)-imidazole] | 510 | 2200 |  |

Source: patent publication US5463071A, “5-membered heterocyclic compounds, processes for preparing them and pharmaceutical compositions containing these compounds” (Dr. Karl Thomae GmbH, priority 1991, dated 1995)
